The values below come from US20090018134A1, “Compounds - 945” (AstraZeneca AB, priority 2007, published 2009).

Format in all cases: biochemical
Assay [1] concerns the target T1, mTOR (Homo sapiens, UniProt P42345).
T1 construct: FLAG; made in house
Kind of assay: In Vitro mTOR Kinase Assay (Echo), Test (a)(ii). In short, it runs like this: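 FLAG-tagged truncated mTOR (residues 1362-2549), expressed in HEK293 and purified via the FLAG tag, phosphorylated a biotinylated peptide over 2 hours at room temperature. EDTA stopped the reaction. Phospho-T389 was detected overnight by AlphaScreen using the p70 S6K T389 antibody with Protein A/streptavidin beads; IC50 reported.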

The target of another assay is T2, p110α Type Ia human PI3K (Homo sapiens, UniProt P42336).
T2 construct: full length DNA of each of the p110α, p110β and p110δ Type Ia human PI3K p110 isoforms; 6-His; made in house
Kind of assay: In Vitro PI3K Enzyme Assay (AlphaScreen), Test (b)(i), p110α. The note with it: read-out: IC50 versus p110α Type Ia human PI3K. The source says: (b)(i) In Vitro PI3K Enzyme Assay
The assay used AlphaScreen technology (Gray et al., Analytical Biochemistry, 2003, 313: 234-245) to determine the ability of test compounds to inhibit phosphorylation by recombinant Type I PI3K enzymes of the lipid PI(4,5)P2.
DNA fragments encoding human PI3K catalytic and regulatory subunits were isolated from cDNA libraries using standard molecular biology and PCR cloning techniques. The selected DNA fragments were used to generate baculovirus expression vectors. In particular, full length DNA of each of the p110α, p110β and p110δ Type Ia human PI3K p110 isoforms (EMBL Accession Nos. HSU79143, S67334, Y10055 for p110α, p110β and p110δ respectively) were sub-cloned into a pDEST10 vector (Invitrogen Limited, Fountain Drive, Paisley, UK). The vector is a Gateway-adapted version of Fastbac1 containing a 6-His epitope tag. […]
Biotinylated-DiC8-PI(3,4,5)P3 (50 nM; Cell Signals Inc., Catalogue No. 107), recombinant purified GST-Grp1 PH protein (2.5 nM) and AlphaScreen Anti-GST donor and acceptor beads (100 ng; Packard Bioscience Limited, Station Road, Pangbourne, Berkshire, UK, Catalogue No. 6760603M) were added and the assay plates were left for about 5 to 20 hours at room temperature in the dark. The resultant signals arising from laser light excitation at 680 nm were read using a Packard AlphaQuest instrument. […]

Assay [2] addresses T1, mTOR. Put plainly: mTOR Kinase Assay (Echo).
Where [3] appears, read: table of enzyme assay Test (a)(ii), read-out: Test (a)(ii) IC50.

T1 sequence (P42345 1362-2549): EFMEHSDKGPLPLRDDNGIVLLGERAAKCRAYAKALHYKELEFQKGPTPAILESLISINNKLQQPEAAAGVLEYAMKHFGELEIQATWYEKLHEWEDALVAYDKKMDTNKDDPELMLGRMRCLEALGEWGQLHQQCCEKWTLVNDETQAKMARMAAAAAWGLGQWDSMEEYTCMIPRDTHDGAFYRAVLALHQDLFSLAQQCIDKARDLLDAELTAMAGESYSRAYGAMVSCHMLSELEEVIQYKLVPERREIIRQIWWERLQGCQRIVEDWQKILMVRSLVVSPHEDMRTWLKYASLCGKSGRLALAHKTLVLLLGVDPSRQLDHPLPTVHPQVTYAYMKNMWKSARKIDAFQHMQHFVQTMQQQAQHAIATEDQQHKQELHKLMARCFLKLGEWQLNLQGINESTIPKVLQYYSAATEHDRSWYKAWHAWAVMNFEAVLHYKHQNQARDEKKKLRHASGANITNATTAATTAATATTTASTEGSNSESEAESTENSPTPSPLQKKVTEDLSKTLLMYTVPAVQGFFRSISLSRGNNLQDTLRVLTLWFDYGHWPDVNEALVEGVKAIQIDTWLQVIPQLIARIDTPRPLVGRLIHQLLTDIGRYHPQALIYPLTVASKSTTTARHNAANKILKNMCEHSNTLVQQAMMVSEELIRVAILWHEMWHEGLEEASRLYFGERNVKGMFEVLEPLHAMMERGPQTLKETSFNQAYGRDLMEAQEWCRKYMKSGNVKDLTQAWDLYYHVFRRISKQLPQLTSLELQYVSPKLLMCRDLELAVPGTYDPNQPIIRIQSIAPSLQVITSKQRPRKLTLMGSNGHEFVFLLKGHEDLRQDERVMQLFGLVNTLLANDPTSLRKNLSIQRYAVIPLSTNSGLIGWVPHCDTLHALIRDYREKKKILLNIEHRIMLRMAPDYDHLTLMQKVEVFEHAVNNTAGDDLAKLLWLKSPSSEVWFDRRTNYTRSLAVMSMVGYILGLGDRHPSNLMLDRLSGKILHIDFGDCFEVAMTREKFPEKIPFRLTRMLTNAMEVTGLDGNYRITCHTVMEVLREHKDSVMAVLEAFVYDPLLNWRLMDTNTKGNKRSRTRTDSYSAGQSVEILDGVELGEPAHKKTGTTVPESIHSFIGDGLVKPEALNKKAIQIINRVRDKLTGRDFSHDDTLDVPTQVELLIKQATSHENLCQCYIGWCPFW
T2 sequence (P42336 whole entry, canonical isoform): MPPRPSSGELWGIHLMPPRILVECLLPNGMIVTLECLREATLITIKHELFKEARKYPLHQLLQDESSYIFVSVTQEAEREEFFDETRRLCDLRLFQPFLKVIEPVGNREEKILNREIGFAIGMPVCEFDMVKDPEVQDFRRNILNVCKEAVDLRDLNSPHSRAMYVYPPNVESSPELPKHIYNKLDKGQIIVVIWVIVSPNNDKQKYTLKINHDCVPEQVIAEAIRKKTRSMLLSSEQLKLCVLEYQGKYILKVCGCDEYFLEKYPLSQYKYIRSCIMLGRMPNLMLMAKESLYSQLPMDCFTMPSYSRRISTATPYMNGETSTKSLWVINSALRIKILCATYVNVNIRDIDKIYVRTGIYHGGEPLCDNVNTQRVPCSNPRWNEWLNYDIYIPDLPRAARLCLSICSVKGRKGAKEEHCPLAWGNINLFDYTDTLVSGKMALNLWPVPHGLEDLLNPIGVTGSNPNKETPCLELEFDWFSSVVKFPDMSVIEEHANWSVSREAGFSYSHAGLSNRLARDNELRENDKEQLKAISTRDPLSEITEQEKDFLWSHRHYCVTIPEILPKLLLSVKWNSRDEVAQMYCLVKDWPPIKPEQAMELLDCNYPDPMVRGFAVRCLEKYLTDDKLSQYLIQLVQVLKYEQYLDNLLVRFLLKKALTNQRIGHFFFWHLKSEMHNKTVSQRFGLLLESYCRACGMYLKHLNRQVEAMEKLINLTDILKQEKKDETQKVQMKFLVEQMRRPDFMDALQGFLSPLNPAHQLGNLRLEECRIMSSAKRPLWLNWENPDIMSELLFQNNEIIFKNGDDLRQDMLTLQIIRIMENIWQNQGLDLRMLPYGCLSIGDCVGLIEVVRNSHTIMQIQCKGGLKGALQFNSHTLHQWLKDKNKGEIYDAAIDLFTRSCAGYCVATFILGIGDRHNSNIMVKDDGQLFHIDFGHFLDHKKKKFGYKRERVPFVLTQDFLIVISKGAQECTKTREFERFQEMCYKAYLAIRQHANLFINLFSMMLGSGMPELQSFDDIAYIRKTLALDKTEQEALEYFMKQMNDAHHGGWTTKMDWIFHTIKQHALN
T2 sequence (P27986 whole entry partner, canonical isoform): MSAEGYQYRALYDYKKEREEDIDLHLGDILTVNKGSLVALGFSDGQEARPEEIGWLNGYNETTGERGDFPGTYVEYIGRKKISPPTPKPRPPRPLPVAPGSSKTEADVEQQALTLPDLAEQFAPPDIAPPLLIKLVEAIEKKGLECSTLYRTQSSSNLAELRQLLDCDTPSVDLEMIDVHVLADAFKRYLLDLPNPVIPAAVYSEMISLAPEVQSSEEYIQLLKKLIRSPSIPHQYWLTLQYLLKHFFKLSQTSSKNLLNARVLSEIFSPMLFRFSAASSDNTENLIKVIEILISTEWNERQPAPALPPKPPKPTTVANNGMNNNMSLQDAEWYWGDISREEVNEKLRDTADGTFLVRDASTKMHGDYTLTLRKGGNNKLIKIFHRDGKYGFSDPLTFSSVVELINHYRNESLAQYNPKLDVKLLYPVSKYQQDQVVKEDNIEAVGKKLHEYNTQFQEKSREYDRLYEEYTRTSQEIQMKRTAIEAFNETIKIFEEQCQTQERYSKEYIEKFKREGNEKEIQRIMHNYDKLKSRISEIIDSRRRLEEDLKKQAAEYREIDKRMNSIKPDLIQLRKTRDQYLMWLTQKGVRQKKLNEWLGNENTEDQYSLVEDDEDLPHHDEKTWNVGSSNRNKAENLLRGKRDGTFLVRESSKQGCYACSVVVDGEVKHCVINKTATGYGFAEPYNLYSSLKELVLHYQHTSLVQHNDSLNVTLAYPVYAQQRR

On to `C[C@H]1COCCN1c1cc(C2(S(C)(=O)=O)CC2)nc(-c2ccc(NC(=O)Nc3cnn(C)c3)cc2)n1` [Example 2b, 1-[4-[4-[(3S)-3-methylmorpholin-4-yl]-6-(1-methylsulfonylcyclopropyl)pyrimidin-2-yl]phenyl]-3-(1-methylpyrazol-4-yl)urea], for which the IC50 at mTOR [1] (read-out: mTOR Kinase Assay (Echo)) was 0.169 nM; on p110α Type Ia human PI3K, 1040 nM.
For `C[C@H]1COCCN1c1cc(C2(S(=O)(=O)c3ccccc3)CC2)nc(-c2ccc(NC(=S)NCCC#N)cc2)n1` [Example 37y, 1-[4-[4-[1-(benzenesulfonyl)cyclopropyl]-6-[(3S)-3-methylmorpholin-4-yl]pyrimidin-2-yl]phenyl]-3-(2-cyanoethyl)thiourea], the IC50 came to 6.86 nM on mTOR [1] (setting [3]) and 5.53 nM at mTOR [2].
On the same counts, the results for `C[C@H]1COCCN1c1cc(C2(S(=O)(=O)c3ncc[nH]3)CC2)nc(-c2ccc(NC(=O)NC3CC3)cc2)n1` [Example 40a, 3-cyclopropyl-1-[4-[4-[1-(1H-imidazol-2-ylsulfonyl)cyclopropyl]-6-[(3S)-3-methylmorpholin-4-yl]pyrimidin-2-yl]phenyl]urea] are 2.21 nM and 6.49 nM.
For `CCNC(=O)Nc1ccc(-c2nc(N3CCOCC3)cc(C3(S(=O)(=O)c4nc(C)cs4)CC3)n2)cc1` [Example 42d, 1-ethyl-3-[4-[4-[1-[(4-methyl-1,3-thiazol-2-yl)sulfonyl]cyclopropyl]-6-morpholin-4-ylpyrimidin-2-yl]phenyl]urea] the same measures were 0.607 nM and 0.425 nM.
On the same counts, the results for `CCNC(=O)Nc1ccc(-c2nc(N3CCOC[C@@H]3C)cc(C3(S(=O)(=O)CCNC(C)=O)CC3)n2)cc1` [Example 45, N-[2-[1-[2-[4-(Ethylcarbamoylamino)phenyl]-6-[(3S)-3-methylmorpholin-4-yl]pyrimidin-4-yl]cyclopropyl]sulfonylethyl]acetamide] are 7.17 nM and 21.9 nM.
In the case of `CNC(=O)Nc1ccc(-c2nc(N3CCOC[C@@H]3C)cc(C3(S(=O)(=O)c4ccc(F)cn4)CC3)n2)cc1` [Example 48, 1-[4-[4-[1-(5-Fluoropyridin-2-yl)sulfonylcyclopropyl]-6-[(3S)-3-methylmorpholin-4-yl]pyrimidin-2-yl]phenyl]-3-methylurea], the IC50 was found to be 0.72 nM at mTOR [1] (setting [3]) and 2.52 nM at mTOR [2].
For `C[C@H]1COCCN1c1cc(C2(S(=O)(=O)c3ccc(F)cn3)CC2)nc(-c2ccc(NC(=O)NC3CC3)cc2)n1` [Example 48a, 3-cyclopropyl-1-[4-[4-[1-(5-fluoropyridin-2-yl)sulfonylcyclopropyl]-6-[(3S)-3-methylmorpholin-4-yl]pyrimidin-2-yl]phenyl]urea] the same measures were 1.16 nM and 1.03 nM.
Regarding `C[C@H]1COCCN1c1cc(C2(S(C)(=O)=O)CC2)nc(-c2ccc(NC(=O)Nc3cnn(C)c3)c(F)c2)n1` [Example 52d, 1-[2-fluoro-4-[4-[(3S)-3-methylmorpholin-4-yl]-6-(1-methylsulfonylcyclopropyl)pyrimidin-2-yl]phenyl]-3-(1-methylpyrazol-4-yl)urea], the IC50 on mTOR [1] (setting [3]) worked out at 5.88 nM; at mTOR [2] it was 10.7 nM.
